Data as given in patent US4973673A, “Serine analogs of BU-3608 antibiotics” (Bristol-Myers Company, priority 1988, dated 1990).
Values after ≈ are worked out from the molar mass of the structure shown. Like-named read-outs stand apart in the source and are kept apart here.

What was measured:
T. mentagrophytes #4329 = assay: Serial agar dilution MIC, Sabouraud dextrose agar; format: cell-based; conditions: Trichophyton mentagrophytes, pH 7.0, 40 hours at 28° C.
Procedure: (§1) Antifungal activities of representative compounds of the present invention were evaluated both in vitro and in vivo. The minimum inhibitory concentrations (MICs) against various fungi were determined by serial agar dilution method using Sabouraud dextrose agar. Thus, approximately 0.003 ml of fungal suspension containing 10^6 cells/ml was applied to the surface of agar plates containing the test antibiotics.

Candida albicans IAM4888 = assay: Serial agar dilution MIC, Sabouraud dextrose agar; format: cell-based; conditions: pH 7.0, 40 hours at 28° C.
Procedure: as §1

[1] = test system: Cryptococcus neoformans D49; assay: Serial agar dilution MIC, Sabouraud dextrose agar; format: cell-based; conditions: pH 7.0, 40 hours at 28° C.
Procedure: as §1

[2] = test system: Petriellidium boydii IFO8073; assay: Serial agar dilution MIC, Sabouraud dextrose agar; format: cell-based; conditions: Scedosporium boydii, pH 7.0, 40 hours at 28° C.
Procedure: as §1

[3] = test system: Blastomyces dermatitidis D40; assay: Serial agar dilution MIC, Sabouraud dextrose agar; format: cell-based; conditions: pH 7.0, 40 hours at 28° C.
Procedure: as §1

C. albicans A9540 [4] = assay: Serial agar dilution MIC, Sabouraud dextrose agar; format: cell-based; conditions: Candida albicans, pH 7.0, 40 hours at 28° C.
Procedure: as §1

C. neoformans IAM4514 [5] = assay: Serial agar dilution MIC, Sabouraud dextrose agar; format: cell-based; conditions: Cryptococcus neoformans, pH 7.0, 40 hours at 28° C.
Procedure: as §1

Mucor spinosus IFO5317 = assay: Serial agar dilution MIC, Sabouraud dextrose agar; format: cell-based; conditions: pH 7.0, 40 hours at 28° C.
Procedure: as §1

[6] = test system: Trichophyton mentagrophytes D155; assay: Serial agar dilution MIC, Sabouraud dextrose agar; format: cell-based; conditions: pH 7.0, 40 hours at 28° C.
Procedure: as §1

[7] = test system: Aspergillus fumigatus IAM2530; assay: Serial agar dilution MIC, Sabouraud dextrose agar; format: cell-based; conditions: pH 7.0, 40 hours at 28° C.
Procedure: as §1

[8] = test system: Sporothrix schenckii IFO8158; assay: Serial agar dilution MIC, Sabouraud dextrose agar; format: cell-based; conditions: pH 7.0, 40 hours at 28° C.
Procedure: as §1

A. fumigatus IAM2034 [9] = assay: Serial agar dilution MIC, Sabouraud dextrose agar; format: cell-based; conditions: Aspergillus fumigatus, pH 7.0, 40 hours at 28° C.
Procedure: as §1

[10] = test system: Fusarium moniliforme A2284; assay: Serial agar dilution MIC, Sabouraud dextrose agar; format: cell-based; conditions: Fusarium verticillioides, pH 7.0, 40 hours at 28° C.
Procedure: as §1

A. flavus FA21436 = assay: Serial agar dilution MIC, Sabouraud dextrose agar; format: cell-based; conditions: Aspergillus flavus, pH 7.0, 40 hours at 28° C.
Procedure: as §1

C. albicans A9540 [11] = assay: In vivo antifungal activity, intravenous infection in mice; design: species or system Male ICR mice; conditions: Candida albicans, 480 h, survival on 20th day, read-out: PD50 (50% protective dose)
Procedure: (§2) In vivo antifungal activities were evaluated against intravenous infections with Candida albicans A9540, Cryptococcus neoformans IAM4514 and Aspergillus fumigatus IAM2034 in mice. Candida albicans and Cryptococcus neoformans were cultured for 18 and 48 hours, respectively, at 28° C. in YGP medium [yeast extract(0.2%), glucose(1.5%), peptone(0.5%), K2 HPO4 (0.05%) and MgSO4 (0.05%)] and suspended in saline. Aspergillus fumigatus was cultured for 7 days at 28° C. on YGP agar slant and suspended in saline. Spores were collected by filtering fungal suspension through gauze. Male ICR mice weighing 20 to 24 g were infected intravenously with about 10 times the median lethal dose of the fungi.
(§3) Test compounds were administered at various doses to groups of 5 mice each intravenously either once just after fungal challenge (day 0) or once daily for 5 days from day 0 to day 4 (qd×5). The 50% protective dose (PD50) was calculated from survival rates recorded on the 20th day after fungal challenge. All control animals died within 7 to 15 days after fungal infection.

C. neoformans IAM4514 [12] = assay: as above; design: species or system Male ICR mice; conditions: Cryptococcus neoformans, 480 h, survival on 20th day, read-out: PD50 (50% protective dose)
Procedure: as §2, §3

A. fumigatus IAM2034 [13] = assay: as above; design: species or system Male ICR mice; conditions: Aspergillus fumigatus, 480 h, survival on 20th day, read-out: PD50 (50% protective dose)
Procedure: as §2, §3

mice = assay: Acute toxicity (LD50) in mice, single intravenous dose; format: in vivo; conditions: at 600 mg/kg, the highest dose tested
Procedure: The LD50 for N,N-dimethyl BU-3608 FA-2 was determined in mice after a single intravenous dose.

[14] = test system: calcium ion and calmodulin-dependent cyclic nucleotide phosphodiesterase; conditions: background statement; cited from earlier work
[15] = single dose just after challenge

Compound	MIC (T. mentagrophytes #4329)	MIC (Candida albicans IAM4888)	MIC [1]	MIC [2]	MIC [3]	MIC (C. albicans A9540 [4])	MIC (C. neoformans IAM4514 [5])	MIC (Mucor spinosus IFO5317)	MIC [6]	MIC [7]	MIC [8]	MIC (A. fumigatus IAM2034 [9])	MIC [10]	MIC (A. flavus FA21436)	ED50 (C. albicans A9540 [11]; [15])	also measured
COc1cc(O)c2c(c1)C(=O)c1c(cc3c(c1O)-c1c(cc(C)c(C(=O)N[C@H](CO)C(=O)O)c1O)[C@H](O[C@@H]1O[C@H](C)[C@H](N(C)C)[C@H](O)[C@H]1O)[C@H]3O)C2=O [Des-xylosyl N,N-dimethyl BU-3608 FA-2]	6.3 µg/mL (≈ 8.53 µM)	6.3 µg/mL (≈ 8.53 µM)	1.6 µg/mL (≈ 2.17 µM)	100 µg/mL (≈ 135 µM)	3.1 µg/mL (≈ 4.2 µM)	6.3 µg/mL (≈ 8.53 µM)	1.6 µg/mL (≈ 2.17 µM)	25 µg/mL (≈ 33.8 µM)	6.3 µg/mL (≈ 8.53 µM)	6.3 µg/mL (≈ 8.53 µM)	3.1 µg/mL (≈ 4.2 µM)	6.3 µg/mL (≈ 8.53 µM)	50 µg/mL (≈ 67.7 µM)	12.5 µg/mL (≈ 16.9 µM)	–	–
CN[C@@H]1[C@H](O)[C@@H](O)[C@H](O[C@H]2c3cc(C)c(C(=O)N[C@H](CO)C(=O)O)c(O)c3-c3c(cc4c(c3O)C(=O)c3cc(OC)cc(O)c3C4=O)[C@@H]2O)O[C@@H]1C [Des-xylosyl BU-3608 FA-1]	12.5 µg/mL (≈ 17.2 µM)	3.1 µg/mL (≈ 4.28 µM)	1.6 µg/mL (≈ 2.21 µM)	> 100 µg/mL	6.3 µg/mL (≈ 8.69 µM)	3.1 µg/mL (≈ 4.28 µM)	1.6 µg/mL (≈ 2.21 µM)	12.5 µg/mL (≈ 17.2 µM)	12.5 µg/mL (≈ 17.2 µM)	6.3 µg/mL (≈ 8.69 µM)	6.3 µg/mL (≈ 8.69 µM)	6.3 µg/mL (≈ 8.69 µM)	> 100 µg/mL	50 µg/mL (≈ 69 µM)	–	–
COc1cc(O)c2c(c1)C(=O)c1c(cc3c(c1O)-c1c(cc(C)c(C(=O)N[C@H](CO)C(=O)O)c1O)[C@H](O[C@@H]1O[C@H](C)[C@H](N(C)C)[C@H](O[C@@H]4OC[C@@H](O)[C@H](O)[C@H]4O)[C@H]1O)[C@H]3O)C2=O [N,N-dimethyl BU-3608 FA-2]	6.3 µg/mL (≈ 7.23 µM)	3.1 µg/mL (≈ 3.56 µM)	0.8 µg/mL (≈ 0.919 µM)	–	6.3 µg/mL (≈ 7.23 µM)	6.3 µg/mL (≈ 7.23 µM)	0.8 µg/mL (≈ 0.919 µM)	–	12.5 µg/mL (≈ 14.4 µM)	3.1 µg/mL (≈ 3.56 µM)	1.6 µg/mL (≈ 1.84 µM)	3.1 µg/mL (≈ 3.56 µM)	25 µg/mL (≈ 28.7 µM)	25 µg/mL (≈ 28.7 µM)	9 mg/kg	ED50 (C. albicans A9540 [11]; qd × 5 (day 0 to day 4)): 7.5 mg/kg; ED50 (C. neoformans IAM4514 [12]; qd × 5 (day 0 to day 4)): 2.8 mg/kg; ED50 (C. neoformans IAM4514 [12]; [15]): 11 mg/kg; ED50 (A. fumigatus IAM2034 [13]; qd × 5 (day 0 to day 4)): 15 mg/kg; ED50 (A. fumigatus IAM2034 [13]; [15]): 36 mg/kg; LD50 determination: lethal toxicity and toxic signs (mice): neither lethal toxicity nor any significant toxic sign was observed
COc1cc(O)c2c(c1)C(=O)c1c(cc3c(c1O)-c1c(cc(C)c(C(=O)N[C@H](CO)C(=O)O)c1O)[C@H](O[C@@H]1O[C@H](C)[C@H](N)[C@H](O)[C@H]1O)[C@H]3O)C2=O [Des-xylosyl BU-3608 FA-2]	12.5 µg/mL (≈ 17.6 µM)	3.1 µg/mL (≈ 4.36 µM)	3.1 µg/mL (≈ 4.36 µM)	> 100 µg/mL	6.3 µg/mL (≈ 8.87 µM)	3.1 µg/mL (≈ 4.36 µM)	3.1 µg/mL (≈ 4.36 µM)	25 µg/mL (≈ 35.2 µM)	12.5 µg/mL (≈ 17.6 µM)	12.5 µg/mL (≈ 17.6 µM)	6.3 µg/mL (≈ 8.87 µM)	12.5 µg/mL (≈ 17.6 µM)	> 100 µg/mL	50 µg/mL (≈ 70.4 µM)	–	–
COc1cc(O)c2c(c1)C(=O)c1c(cc3c(c1O)-c1c(cc(C)c(C(=O)N[C@H](CO)C(=O)O)c1O)[C@H](O[C@@H]1O[C@H](C)[C@H](N)[C@H](O[C@@H]4OC[C@@H](O)[C@H](O)[C@H]4O)[C@H]1O)[C@H]3O)C2=O [BU-3608 FA-2]	6.3 µg/mL (≈ 7.48 µM)	6.3 µg/mL (≈ 7.48 µM)	0.8 µg/mL (≈ 0.949 µM)	25 µg/mL (≈ 29.7 µM)	3.1 µg/mL (≈ 3.68 µM)	6.3 µg/mL (≈ 7.48 µM)	0.8 µg/mL (≈ 0.949 µM)	> 100 µg/mL	6.3 µg/mL (≈ 7.48 µM)	3.1 µg/mL (≈ 3.68 µM)	1.6 µg/mL (≈ 1.9 µM)	6.3 µg/mL (≈ 7.48 µM)	6.3 µg/mL (≈ 7.48 µM)	6.3 µg/mL (≈ 7.48 µM)	7.4 mg/kg	–
CN[C@@H]1[C@H](O[C@@H]2OC[C@@H](O)[C@H](O)[C@H]2O)[C@@H](O)[C@H](O[C@H]2c3cc(C)c(C(=O)N[C@H](CO)C(=O)O)c(O)c3-c3c(cc4c(c3O)C(=O)c3cc(OC)cc(O)c3C4=O)[C@@H]2O)O[C@@H]1C [BU-3608 FA-1]	6.3 µg/mL (≈ 7.35 µM)	6.3 µg/mL (≈ 7.35 µM)	0.8 µg/mL (≈ 0.934 µM)	12.5 µg/mL (≈ 14.6 µM)	3.1 µg/mL (≈ 3.62 µM)	12.5 µg/mL (≈ 14.6 µM)	0.8 µg/mL (≈ 0.934 µM)	> 100 µg/mL	6.3 µg/mL (≈ 7.35 µM)	3.1 µg/mL (≈ 3.62 µM)	1.6 µg/mL (≈ 1.87 µM)	6.3 µg/mL (≈ 7.35 µM)	6.3 µg/mL (≈ 7.35 µM)	6.3 µg/mL (≈ 7.35 µM)	18 mg/kg	–
CC(=O)Cc1cc2c(c(O)c1C(=O)O)-c1cc3c(c(O)c1CC2)C(=O)c1c(O)cc(O)cc1C3=O [KS-619-1]	–	–	–	–	–	–	–	–	–	–	–	–	–	–	–	inhibitor of calcium ion and calmodulin-dependent cyclic nucleotide phosphodiesterase [14]: inhibitor of calcium ion and calmodulin-dependentcyclic nucleotide phosphodiesterase
